This note sets out measurements from BindingDB's records for doi:10.1021/acschembio.5b00370 (University of Wisconsin-Madison, 2015).

As usually defined, the Kd is the constant that tells how readily two partners part at equilibrium. A higher Kd goes with weaker binding.

In the test the target is Probable UDP-galactopyranose mutase (Klebsiella pneumoniae, UniProt Q48481). Description: Fluorescence Polarization Assay. As to the method: Polarization for the fluorescein-UDP conjugated probe in the presence of inhibitors was measured on a Tecan M1000 microplate reader, exciting with 470 nm light and monitoring emission at 525 nm. Each condition was tested in triplicate in the presence of 220 nM K. pneumoniae UGM and 23.3 nM of the probe.
Sequence of Probable UDP-galactopyranose mutase (Q48481 whole entry): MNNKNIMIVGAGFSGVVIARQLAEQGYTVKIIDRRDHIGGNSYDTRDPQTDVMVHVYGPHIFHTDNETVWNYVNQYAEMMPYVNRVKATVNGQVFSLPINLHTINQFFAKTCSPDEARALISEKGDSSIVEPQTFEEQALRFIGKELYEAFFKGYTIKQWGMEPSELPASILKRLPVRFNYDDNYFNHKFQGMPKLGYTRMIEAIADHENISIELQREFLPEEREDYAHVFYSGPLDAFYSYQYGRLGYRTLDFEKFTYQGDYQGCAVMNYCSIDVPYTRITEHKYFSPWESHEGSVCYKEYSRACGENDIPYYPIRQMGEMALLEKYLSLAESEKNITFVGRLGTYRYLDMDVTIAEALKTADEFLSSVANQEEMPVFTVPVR
On the technique in general: Fluorescence polarisation rises when a labelled molecule tumbles more slowly, as on binding a larger partner.

Take `O=C(O)CC1Sc2nnc(-c3ccco3)n2N=C1c1ccccc1` (configuration not stated) [2‐[3‐(Furan‐2‐yl)‐6‐phenyl‐7H‐[1,2,4]triazolo[3,4‐b][1,3,4]thiadiazin‐7‐yl]acetate (6)]: the Kd stood at 43 µM.

`C=CCNc1nc(-c2cc(C)n(CCC(=O)O)c2C)cs1` [3‐{2,5‐Dimethyl‐3‐[2‐(prop‐2‐en‐1‐ylamino)‐1,3‐thiazol‐4‐yl]pyrrol‐1‐yl}propanoate (10)] came in with a Kd of 6 µM.
